Tests used:
[1] = Appetite in Htr1aPomc-/- mice treated with LY426965; type: in vivo
Description: These two hypotheses were tested through the use of a small molecule that selectively antagonizes signaling through Htr1a receptor. Other Htr1a and 2b receptor antagonists for use in the present invention are discussed below.
Animals were housed under 12 h light/12 h dark conditions with ad libitum access to food and water, and were used after a minimum of 4 days of acclimatization to the housing conditions. Control, Htr1aPomc−/−, Htr2bPomc−/−, Htr1a; 2 bPomc−/−, CrebPomc−/− mice were separated into individual cages one day prior to the experiment. Food intake and energy expenditure was measured every 12 hours for 36 hours essentially as described previously (6, 17).

[2] = Chronic treatment of ob/ob mice with LY426965; type: in vivo; conditions: 20 mg/kg body weight daily for 4 weeks from 4 weeks of age
Description: (§1) To determine whether LY426965 could decrease appetite in leptin-deficient ob/ob mice, we administered 4-week old ob/ob mice with a single dose of LY426965 (0.2 mg/20 g of body weight) and measured food intake 12, 24 and 36 h later. […] Experiments were conducted to determine whether LY426965 could rescue, at least in part, the obesity of ob/ob mice if administered chronically, once mice had already developed an obesity phenotype. 4-week old ob/ob mice were administered daily with 20 mg/kg body weight dose of LY426965 for 4 additional weeks.
In this experiment one-month old WT and ob/ob mice (housed individually in metabolic cages) were divided into different groups and injected with the LY426965 dissolved in water and diluted in saline (final concentration 0.9%) once a day, 2 hours prior to the commencement of the dark cycle, for 4 weeks. Body weight was recorded everyday and dose of the drug and vehicle adjusted accordingly. At the end of the experiment all mice were subjected to measurement of food intake every 12 hours over a period of 36 hours.

[3] = Acute dose response of LY426965 on food intake in WT mice; type: in vivo
Description: (§2) This decrease in food intake reached 77% of control values when using 20 mg/kg of the compound (FIG. 19 C). […] Thus LY426965 decreases appetite in WT mice by inhibiting serotonin signaling through the Htr1a receptor that is located in the hypothalamus.
(§3) One or 3-month old C57B1/6J inbred female mice were used in these experiments. Two different experimental regimens were utilized to assess the effect of LY426965 on appetite in WT and ob/ob mice.
Animals were separated into individual cages one day prior to the experiment. Compound LY426965 was dissolved in water and fed orally (Gavage) according to the weight of the mouse at doses 1, 5, 10 and 20 mg/kg BW two hours prior to the commencement of the dark cycle. Control animals received the same volume of vehicle. Food intake was measured every 12 hours for 36 hours after giving one dose of the antagonist.

[4] = Mass spectrometric analysis of mice hypothalami after administration of the compound; type: in vivo
Description: as §2

[5] = Food intake in leptin-deficient ob/ob mice after a single dose of LY426965; type: in vivo; conditions: 4-week old ob/ob mice, single dose 0.2 mg/20 g of body weight, 12, 24 and 36 h later
Description: as §1, §3

Htr1a receptor = molecular target: T1, Htr1a receptor (Homo sapiens, UniProt P08908); conditions: cited from earlier work
T1 sequence (P08908 1-422): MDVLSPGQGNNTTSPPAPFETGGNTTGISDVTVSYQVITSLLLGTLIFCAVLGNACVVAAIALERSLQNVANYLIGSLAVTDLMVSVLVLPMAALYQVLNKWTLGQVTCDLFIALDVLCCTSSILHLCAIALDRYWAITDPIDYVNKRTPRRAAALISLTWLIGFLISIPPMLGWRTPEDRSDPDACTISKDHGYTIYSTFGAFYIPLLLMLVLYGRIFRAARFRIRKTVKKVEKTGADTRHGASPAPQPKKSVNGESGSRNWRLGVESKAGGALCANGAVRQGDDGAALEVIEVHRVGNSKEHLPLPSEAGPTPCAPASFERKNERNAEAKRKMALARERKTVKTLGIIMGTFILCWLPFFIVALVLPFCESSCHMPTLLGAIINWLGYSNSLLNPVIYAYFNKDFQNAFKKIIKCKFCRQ

COc1ccccc1N1CCN(CC[C@](C)(C(=O)C2CCCCC2)c2ccccc2)CC1 [LY426965]
appetite [1]: not decreased
obesity phenotype [2]: significantly decreased the obesity phenotype
decrease in food intake ([3]; 20 mg/kg, WT mice): 77 % of control values
appetite (dose response) ([3]; 1 to 20 mg/kg of body weight fed to 12 week-old C57B16/J mice): dose-dependent decrease in appetite
compound reaching the hypothalamus [4]: could reach the hypothalamus
food intake lower than in vehicle-treated mice [5]: 20-25%
selectivity over other serotonin and non-serotonin receptor subtypes (Htr1a receptor): ≥ 20 fold
Ki (Htr1a receptor; read-out: affinity for the Htr1a receptor (Ki)): 4.66 nM

— patent US20120115778A1, “Methods of Suppressing Appetite by the Administration of Antagonists of the Serotonin HTR1a or HTR2b Receptors or Inhibitors of TPH2” (The Trustees of Columbia University in the City of New York, priority 2009, published 2012)
